This passage reports AC50 results from ChEMBL document CHEMBL5291721, “A preclinical secondary pharmacology resource illuminates target-adverse drug reaction associations of marketed drugs” (Nat Commun, 2023).

Molecules are shown by their SMILES. Where only a bound is given, the exact number is not on record here.

As a reminder, the AC50 is the concentration at which the activity in the assay is half-maximal. A lower AC50 goes with greater potency.

In test [1] the target is Gamma-aminobutyric acid type B receptor subunit 1 (Homo sapiens, UniProt Q9UBS5).
Chain of Gamma-aminobutyric acid type B receptor subunit 1 (Q9UBS5 whole entry): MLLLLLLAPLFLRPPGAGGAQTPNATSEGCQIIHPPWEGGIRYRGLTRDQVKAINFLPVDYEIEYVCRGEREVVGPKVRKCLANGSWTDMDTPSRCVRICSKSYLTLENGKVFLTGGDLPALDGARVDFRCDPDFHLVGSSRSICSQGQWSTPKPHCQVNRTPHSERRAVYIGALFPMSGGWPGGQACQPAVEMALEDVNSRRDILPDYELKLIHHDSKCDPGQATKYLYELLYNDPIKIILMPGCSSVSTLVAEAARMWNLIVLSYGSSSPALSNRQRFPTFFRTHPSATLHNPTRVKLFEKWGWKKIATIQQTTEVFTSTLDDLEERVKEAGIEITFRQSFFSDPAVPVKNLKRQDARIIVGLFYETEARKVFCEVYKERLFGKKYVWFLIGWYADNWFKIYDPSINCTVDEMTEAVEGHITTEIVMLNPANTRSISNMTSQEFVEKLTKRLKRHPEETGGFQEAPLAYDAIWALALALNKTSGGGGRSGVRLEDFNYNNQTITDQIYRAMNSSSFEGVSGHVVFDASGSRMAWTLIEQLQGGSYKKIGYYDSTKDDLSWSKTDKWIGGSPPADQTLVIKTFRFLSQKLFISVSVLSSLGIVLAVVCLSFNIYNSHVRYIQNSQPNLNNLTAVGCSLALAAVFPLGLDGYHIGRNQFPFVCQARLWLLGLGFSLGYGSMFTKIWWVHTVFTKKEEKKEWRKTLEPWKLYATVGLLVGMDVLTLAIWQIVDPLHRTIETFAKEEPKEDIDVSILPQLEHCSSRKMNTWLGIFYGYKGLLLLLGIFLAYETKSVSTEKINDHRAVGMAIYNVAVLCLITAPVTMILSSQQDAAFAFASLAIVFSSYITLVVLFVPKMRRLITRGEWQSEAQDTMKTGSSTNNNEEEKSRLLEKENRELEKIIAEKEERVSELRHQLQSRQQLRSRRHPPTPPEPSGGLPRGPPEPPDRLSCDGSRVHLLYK
Test [2] addresses Histamine H1 receptor (Homo sapiens, UniProt P35367). The class given is functional, cell-based.
In test [3] the target is T1, Estrogen receptor (Homo sapiens, UniProt P03372).
T1 sequence (P03372 whole entry): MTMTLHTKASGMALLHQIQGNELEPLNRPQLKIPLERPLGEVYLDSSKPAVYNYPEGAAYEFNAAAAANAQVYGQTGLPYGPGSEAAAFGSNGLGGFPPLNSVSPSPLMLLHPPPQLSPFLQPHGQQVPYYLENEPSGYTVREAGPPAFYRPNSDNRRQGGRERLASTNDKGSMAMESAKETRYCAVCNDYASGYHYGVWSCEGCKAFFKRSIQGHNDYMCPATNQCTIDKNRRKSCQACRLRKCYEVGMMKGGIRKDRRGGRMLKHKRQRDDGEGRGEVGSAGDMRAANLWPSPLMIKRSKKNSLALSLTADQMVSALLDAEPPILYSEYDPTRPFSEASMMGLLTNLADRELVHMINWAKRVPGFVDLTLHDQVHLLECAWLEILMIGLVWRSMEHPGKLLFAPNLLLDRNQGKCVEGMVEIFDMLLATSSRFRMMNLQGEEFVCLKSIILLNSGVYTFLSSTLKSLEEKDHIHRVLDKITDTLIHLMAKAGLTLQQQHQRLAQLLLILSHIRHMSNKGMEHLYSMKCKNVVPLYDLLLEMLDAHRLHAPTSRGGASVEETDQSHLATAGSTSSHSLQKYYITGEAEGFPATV
It counts as functional.

The target in test [4] is T2, Alpha-1A adrenergic receptor (Homo sapiens, UniProt P35348).
T2 sequence (P35348 whole entry): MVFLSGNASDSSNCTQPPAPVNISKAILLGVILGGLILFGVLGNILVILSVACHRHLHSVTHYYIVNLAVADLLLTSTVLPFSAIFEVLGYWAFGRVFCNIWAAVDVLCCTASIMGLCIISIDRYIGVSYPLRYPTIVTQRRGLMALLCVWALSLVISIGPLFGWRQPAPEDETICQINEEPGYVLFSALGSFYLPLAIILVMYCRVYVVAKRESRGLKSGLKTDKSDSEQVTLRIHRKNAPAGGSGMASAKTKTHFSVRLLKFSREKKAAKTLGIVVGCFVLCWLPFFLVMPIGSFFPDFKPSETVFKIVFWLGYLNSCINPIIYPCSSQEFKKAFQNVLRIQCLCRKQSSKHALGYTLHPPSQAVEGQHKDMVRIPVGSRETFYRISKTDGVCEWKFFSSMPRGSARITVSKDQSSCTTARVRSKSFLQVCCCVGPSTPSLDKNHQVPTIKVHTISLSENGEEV

Test [5] concerns the target Hydroxycarboxylic acid receptor 2 (Homo sapiens, UniProt Q8TDS4).
Test [6] addresses Substance-P receptor (Homo sapiens, UniProt P25103).
Test [7] concerns the target T3, Muscarinic acetylcholine receptor M4 (Homo sapiens, UniProt P08173).
T3 sequence (P08173 whole entry): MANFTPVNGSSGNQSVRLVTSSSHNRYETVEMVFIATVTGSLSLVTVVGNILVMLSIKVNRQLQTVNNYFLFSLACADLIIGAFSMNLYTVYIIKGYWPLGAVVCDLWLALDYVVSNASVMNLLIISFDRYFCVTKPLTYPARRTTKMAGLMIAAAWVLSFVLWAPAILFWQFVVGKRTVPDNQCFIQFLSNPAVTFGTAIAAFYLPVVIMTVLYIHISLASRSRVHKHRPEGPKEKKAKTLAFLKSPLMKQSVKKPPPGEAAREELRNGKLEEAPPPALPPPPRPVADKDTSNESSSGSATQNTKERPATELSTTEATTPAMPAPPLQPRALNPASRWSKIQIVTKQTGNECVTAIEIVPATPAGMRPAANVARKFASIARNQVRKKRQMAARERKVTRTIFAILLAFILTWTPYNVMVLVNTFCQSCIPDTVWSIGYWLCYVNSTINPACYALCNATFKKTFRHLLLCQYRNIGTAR

Test [8] deals with D(1B) dopamine receptor (Homo sapiens, UniProt P21918).
Chain of D(1B) dopamine receptor (P21918 whole entry): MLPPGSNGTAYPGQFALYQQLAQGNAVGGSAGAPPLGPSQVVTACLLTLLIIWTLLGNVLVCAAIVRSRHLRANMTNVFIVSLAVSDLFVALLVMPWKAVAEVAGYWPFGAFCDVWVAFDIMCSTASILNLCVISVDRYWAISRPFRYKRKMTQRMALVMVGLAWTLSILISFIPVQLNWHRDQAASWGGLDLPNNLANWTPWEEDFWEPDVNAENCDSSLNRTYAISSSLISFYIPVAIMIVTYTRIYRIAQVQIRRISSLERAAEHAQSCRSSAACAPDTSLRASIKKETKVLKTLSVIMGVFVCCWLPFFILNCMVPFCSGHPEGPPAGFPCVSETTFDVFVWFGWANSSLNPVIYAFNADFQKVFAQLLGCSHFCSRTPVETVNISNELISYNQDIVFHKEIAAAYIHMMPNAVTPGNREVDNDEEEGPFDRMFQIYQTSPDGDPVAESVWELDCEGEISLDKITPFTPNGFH
The target of test [9] is 5-hydroxytryptamine receptor 7 (Homo sapiens, UniProt P34969).
Chain of 5-hydroxytryptamine receptor 7 (P34969 whole entry): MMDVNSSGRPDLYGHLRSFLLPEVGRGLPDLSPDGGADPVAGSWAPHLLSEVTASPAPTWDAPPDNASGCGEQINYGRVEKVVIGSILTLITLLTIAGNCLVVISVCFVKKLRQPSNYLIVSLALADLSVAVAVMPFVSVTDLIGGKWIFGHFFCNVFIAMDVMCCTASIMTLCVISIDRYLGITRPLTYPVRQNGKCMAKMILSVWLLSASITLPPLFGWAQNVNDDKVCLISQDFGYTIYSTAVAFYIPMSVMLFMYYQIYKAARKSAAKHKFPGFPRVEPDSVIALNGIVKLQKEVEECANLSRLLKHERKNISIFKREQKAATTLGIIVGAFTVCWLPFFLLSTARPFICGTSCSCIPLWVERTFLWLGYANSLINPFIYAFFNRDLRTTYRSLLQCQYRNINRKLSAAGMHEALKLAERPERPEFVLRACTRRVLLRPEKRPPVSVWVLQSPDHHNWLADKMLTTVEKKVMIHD
Test [10] addresses T4, Substance-K receptor (Homo sapiens, UniProt P21452).
T4 sequence (P21452 whole entry): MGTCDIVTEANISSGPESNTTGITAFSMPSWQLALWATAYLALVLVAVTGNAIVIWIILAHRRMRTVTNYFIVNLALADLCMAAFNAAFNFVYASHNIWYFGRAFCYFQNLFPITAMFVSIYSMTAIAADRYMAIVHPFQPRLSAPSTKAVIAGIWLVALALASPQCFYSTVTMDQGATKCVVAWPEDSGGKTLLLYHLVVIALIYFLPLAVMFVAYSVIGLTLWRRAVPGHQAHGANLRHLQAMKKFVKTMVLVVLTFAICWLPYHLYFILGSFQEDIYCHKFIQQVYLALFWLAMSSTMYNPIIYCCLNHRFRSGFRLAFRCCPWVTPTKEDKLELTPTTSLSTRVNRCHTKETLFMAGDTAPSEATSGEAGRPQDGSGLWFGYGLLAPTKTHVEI

For test [11], the target named is T5, Muscarinic acetylcholine receptor M5 (Homo sapiens, UniProt P08912).
T5 sequence (P08912 whole entry): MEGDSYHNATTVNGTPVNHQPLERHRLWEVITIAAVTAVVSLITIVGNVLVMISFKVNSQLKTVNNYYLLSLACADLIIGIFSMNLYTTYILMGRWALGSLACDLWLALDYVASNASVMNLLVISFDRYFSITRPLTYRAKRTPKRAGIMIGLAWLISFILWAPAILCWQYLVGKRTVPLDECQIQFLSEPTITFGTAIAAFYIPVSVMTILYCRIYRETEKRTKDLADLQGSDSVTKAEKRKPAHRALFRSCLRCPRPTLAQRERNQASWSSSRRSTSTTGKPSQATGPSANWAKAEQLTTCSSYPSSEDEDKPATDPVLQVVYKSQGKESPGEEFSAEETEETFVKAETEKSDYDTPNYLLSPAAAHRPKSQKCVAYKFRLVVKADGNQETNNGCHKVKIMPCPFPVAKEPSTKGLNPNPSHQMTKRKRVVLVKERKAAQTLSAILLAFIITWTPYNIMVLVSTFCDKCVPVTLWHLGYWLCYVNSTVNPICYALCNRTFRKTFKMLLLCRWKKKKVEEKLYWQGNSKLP

Test [12] concerns the target 5-hydroxytryptamine receptor 6 (Homo sapiens, UniProt P50406).
Note: assay procedure not described here.

Chain of Histamine H1 receptor (P35367 whole entry): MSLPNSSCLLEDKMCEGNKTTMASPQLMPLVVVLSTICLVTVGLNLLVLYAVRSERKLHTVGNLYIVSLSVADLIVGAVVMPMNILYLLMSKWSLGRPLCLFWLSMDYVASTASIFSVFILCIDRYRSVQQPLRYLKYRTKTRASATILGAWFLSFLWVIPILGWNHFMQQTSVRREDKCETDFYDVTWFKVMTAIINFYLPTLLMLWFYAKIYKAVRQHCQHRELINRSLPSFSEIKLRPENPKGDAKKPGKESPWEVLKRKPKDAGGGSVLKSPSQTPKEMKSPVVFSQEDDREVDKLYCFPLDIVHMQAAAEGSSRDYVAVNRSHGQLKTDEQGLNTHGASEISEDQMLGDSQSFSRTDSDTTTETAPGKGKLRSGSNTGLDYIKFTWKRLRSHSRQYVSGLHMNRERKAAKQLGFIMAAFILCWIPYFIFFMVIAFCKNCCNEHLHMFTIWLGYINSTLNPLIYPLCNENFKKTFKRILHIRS
Chain of Substance-P receptor (P25103 whole entry): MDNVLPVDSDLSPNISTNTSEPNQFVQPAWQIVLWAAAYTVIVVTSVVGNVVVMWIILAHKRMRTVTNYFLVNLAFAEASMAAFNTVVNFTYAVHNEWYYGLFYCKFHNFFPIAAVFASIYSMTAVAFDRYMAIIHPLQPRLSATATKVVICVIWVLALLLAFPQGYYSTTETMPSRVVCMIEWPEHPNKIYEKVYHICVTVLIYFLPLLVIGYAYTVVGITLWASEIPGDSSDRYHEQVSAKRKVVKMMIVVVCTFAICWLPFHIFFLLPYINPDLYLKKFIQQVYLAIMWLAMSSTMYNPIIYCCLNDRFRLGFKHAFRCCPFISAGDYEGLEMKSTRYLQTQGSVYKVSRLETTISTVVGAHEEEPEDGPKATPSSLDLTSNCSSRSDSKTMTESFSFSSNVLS
Chain of Hydroxycarboxylic acid receptor 2 (Q8TDS4 whole entry): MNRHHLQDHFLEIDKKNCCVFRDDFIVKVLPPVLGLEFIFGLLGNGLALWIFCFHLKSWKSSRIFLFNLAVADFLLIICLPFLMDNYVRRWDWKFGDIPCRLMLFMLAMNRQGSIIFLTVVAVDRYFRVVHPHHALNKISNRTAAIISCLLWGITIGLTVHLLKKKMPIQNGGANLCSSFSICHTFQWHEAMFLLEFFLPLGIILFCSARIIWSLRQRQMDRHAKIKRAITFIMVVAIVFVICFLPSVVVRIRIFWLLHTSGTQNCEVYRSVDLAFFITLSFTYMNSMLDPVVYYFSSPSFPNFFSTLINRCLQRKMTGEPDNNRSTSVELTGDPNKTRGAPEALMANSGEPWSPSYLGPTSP
Chain of 5-hydroxytryptamine receptor 6 (P50406 whole entry): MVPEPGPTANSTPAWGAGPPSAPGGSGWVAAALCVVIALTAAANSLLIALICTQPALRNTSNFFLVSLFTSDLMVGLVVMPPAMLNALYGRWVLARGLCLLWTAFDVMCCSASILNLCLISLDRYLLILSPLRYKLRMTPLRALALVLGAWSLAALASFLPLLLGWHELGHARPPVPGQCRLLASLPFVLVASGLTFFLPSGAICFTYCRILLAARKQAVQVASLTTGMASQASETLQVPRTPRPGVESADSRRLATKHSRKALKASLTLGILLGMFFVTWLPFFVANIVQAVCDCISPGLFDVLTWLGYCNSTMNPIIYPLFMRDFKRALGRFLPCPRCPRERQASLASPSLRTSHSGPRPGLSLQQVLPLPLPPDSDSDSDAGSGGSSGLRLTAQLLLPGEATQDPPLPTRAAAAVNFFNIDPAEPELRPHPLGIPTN

With `CC(C)(N)Cc1ccccc1` [PHENTERMINE], the AC50 in test [1] was more than 10 µM.
`CS(=O)(=O)NC(=O)CCC/C=C\C[C@H]1C(=O)C[C@@H](O)[C@@H]1/C=C/[C@@H](O)COc1ccccc1` [SULPROSTONE] had an AC50 in test [2] of more than 30 µM.
As to `CCN(CC)CCCN(c1ccccc1)C1Cc2ccccc2C1` [APRINDINE], the concentration at half-maximal activity (AC50) in test [2] came to 8 µM.
For `NS(=O)(=O)c1ccc(N2CCCCS2(=O)=O)cc1`, the AC50 in test [2] was more than 30 µM.
As for `COc1ccc(-n2nc(C(N)=O)c3c2C(=O)N(c2ccc(N4CCCCC4=O)cc2)CC3)cc1` [APIXABAN], the AC50 in [3] is more than 30 µM.
For the molecule `COc1ccc2c3c1O[C@H]1C(=O)CC[C@H]4[C@@H](C2)N(C)CC[C@]314` [HYDROCODONE], the AC50 in [4], in test [5] and in test [6] was more than 10 µM each time.
Regarding `CC(NC(C)(C)C)C(=O)c1cccc(Cl)c1` (configuration not stated) [BUPROPION], the AC50 in [7], in test [4], in test [8], in test [9], in test [10] and in [11] was more than 10 µM throughout. Also, the concentration at half-maximal activity (AC50) in test [12], in [1] and in [6] was more than 10 µM each time.
Take `CN1C2CCCC1CC(NC(=O)c1nn(C)c3ccccc13)C2` (configuration not stated) [GRANISETRON]: the AC50 in test [7], in test [4], in test [8], in test [9], in test [10] and in [11] was more than 10 µM each time. For the same molecule, the AC50 in test [12] and in [6] was more than 10 µM throughout.
In [2], `COc1ccc(C(Cl)=C(c2ccc(OC)cc2)c2ccc(OC)cc2)cc1` [CHLOROTRIANISENE] showed an AC50 of more than 30 µM.
With `CCCCCCCC(=O)CC[C@@H]1[C@@H](C/C=C\CCCC(=O)O)[C@@H](O)C[C@H]1O` [UNOPROSTONE], in test [2], the AC50 was more than 30 µM.
As for `CCN(CC)CC(=O)Nc1c(C)cccc1C` [LIDOCAINE], the AC50 in test [10] and in test [6] was more than 10 µM each time.
As for `O=C(O[C@H]1C[N+]2(CCCOc3ccccc3)CCC1CC2)C(O)(c1cccs1)c1cccs1` [ACLIDINIUM BROMIDE], the AC50 was 5.1 µM in test [4], more than 10 µM in test [5] and 0.497 µM in test [6].
In test [2], `CCC(=O)O[C@H](CC(=O)O)C[N+](C)(C)C` [LEVOCARNITINE PROPIONATE] gave an AC50 of more than 30 µM.
In the case of `CN1C(=O)CN=C(c2ccccc2F)c2cc([N+](=O)[O-])ccc21` [FLUNITRAZEPAM], the AC50 in test [4] and in [6] was more than 10 µM each time.
As for `Cc1ccc(-c2ncc(Cl)cc2-c2ccc(S(C)(=O)=O)cc2)cn1` [ETORICOXIB], the AC50 in test [7], in test [4], in test [8], in [9], in test [10] and in test [11] was more than 10 µM in each case. Moreover, the AC50 in [12] is more than 10 µM; in test [1], more than 10 µM; in test [6], more than 10 µM; in [2], more than 30 µM.
In test [2], `Oc1cc(O)c2c(c1)O[C@H](c1ccc(O)c(O)c1)[C@@H](O)C2` [CIANIDANOL] came in with a concentration at half-maximal activity (AC50) of more than 30 µM.
As to `Cc1nnc2n1-c1ccc(Cl)cc1C(c1ccccc1)=NC2` [ALPRAZOLAM], the AC50 in [5] and in [6] was more than 10 µM throughout.
On to `COC(=O)c1ccc2c(c1)NC(=O)/C2=C(\Nc1ccc(N(C)C(=O)CN2CCN(C)CC2)cc1)c1ccccc1` [NINTEDANIB], for which the half-maximal activity concentration (AC50) in test [3] is more than 30 µM.
As to `CCCCCCOC(=O)NC(=N)c1ccc(NCc2nc3cc(C(=O)N(CCC(=O)OCC)c4ccccn4)ccc3n2C)cc1` [DABIGATRAN ETEXILATE], the AC50 in test [3] is more than 30 µM.
`CC1NCCOC1c1ccccc1` (configuration not stated) [PHENMETRAZINE] returned an AC50 in [2] of more than 30 µM.
Consider `O=C(O)c1nn(Cc2ccc(Cl)cc2Cl)c2ccccc12` [LONIDAMINE], for which the AC50 in [2] was more than 30 µM.
`O=C1CN=C(c2ccccc2Cl)c2cc([N+](=O)[O-])ccc2N1` [CLONAZEPAM]: the AC50 in test [4], in test [5] and in [6] was more than 10 µM throughout.
Regarding `CCOC(=O)C1=C(C)NC(C)=C(C(=O)OC)C1c1cccc(Cl)c1Cl` (configuration not stated) [FELODIPINE], the AC50 in test [4] and in [6] was more than 10 µM in each case.
